The test system of data set [1] is MCF-7-AdrR cells. Kind of data set: Cell radiolabeling and TLC/LSC analysis of ceramide, glucosylceramide and sphingomyelin in MDR breast cancer cells. In kind it is cell-based, human. The procedure: (§1) Cells. Experiments were conducted using the human MDR breast cancer cell line, MCF-7 AdrR (adriamycin resistant) provided by Drs. Kenneth H. Cowan and Merrill E. Goldsmith, National Cancer Institute. Cells were grown in RPMI-1640 medium containing 10% FBS (fetal bovine serum) and antibiotics as previously described (Lavie, 1997) and cultures were maintained in a humidified 6.5% CO2 atmosphere incubator. Trypsin (0.05%) and EDTA (0.5 mM) were used for subculture. Plastic tissue cultureware, was from Costar (96-well plates) and Corning (6-well plates, 6-cm dishes, T-75 flasks). Limited experiments were conducted using the human MDR epidermoid carcinoma cell line, KBV-1, provided by Dr. Michael M. Gottesman, National Cancer Institute. Cells were maintained as described (Lavie, 1996). Vinblastine was eliminated from the culture medium during the experiments.
Cell Radiolabeling and Lipid/Glycolipid Analysis. To follow lipid metabolism, cells were grown in the presence of tritiated ceramide precursors, L-[^3H]serine (20 Ci/mmol) (American Radiolabeled Chemicals, Inc., St. Louis), and [9, 10-^3H]palmitic acid (50 Ci/mmol) (DuPont NEN). Labeling media were prepared by adding microliter amounts of tritiated compounds (supplied in ethanol or sterile water) to medium containing only 5% FBS. After radiolabeling, 0.1 ml aliquots of medium were removed and analyzed by LSC (Lavie, 1997), in order to determine cellular uptake of the tritiated compounds. Cell monolayers were then rinsed twice with cold phosphate-buffered saline. Ice cold methanol containing 2% acetic acid was added, and cells were scraped free of the substratum (plastic scraper) for lipid extraction using chloroform and water in 1-dram glass vials as described (Lavie, 1997; Lavie, 1996; Bligh and Dyer, 1959). After centrifugation, the resulting organic lower phase of the biphasic extraction was withdrawn, transferred to a glass vial, and evaporated to dryness under a stream of nitrogen.
Radioactivity in glucosylceramide was analyzed by TLC resolution of total lipids (Silica Gel G) using a solvent system containing chloroform/methanol/ammonium hydroxide (80:20:2, v/v/v). Migration of glucosylceramide on TLC was compared with that of commercial standard (glucocerebrosides, Gaucher's spleen, Matreya, Inc., Pleasant Gap, Pa.), and lipid spots, after iodine vapor visualization, were scraped for tritium quantitation by LSC (Lavie, 1997; Lavie, 1996). […] Ceramide and sphingomyelin commercial standards (brain-derived) were from Avanti Polar Lipids, Alabaster, Ala. After iodine visualization of lipids, areas of the chromatogram corresponding to ceramide and sphingomyelin were scraped into minivials containing 0.5 ml water followed by 4.5 ml EcoLume (ICN, Costa Mesa, Calif.), and samples were analyzed for tritium by liquid scintillation spectrometry. Alternative analysis of ceramide consisted of subjecting an aliquot of the total cell lipid extract to mild alkaline hydrolysis (0.1 N KOH in methanol, 1 h at 37° C.) followed by re-extraction (Lavie, 1997). […] The same can also be done without tritium by simply applying 100-200 μg total cell lipid to TLC plates and developing them in the appropriate solvent, then spraying them with 30% H2SO4, charring the plate in an oven at 180° C. for 20 min, and measuring lipid mass by densitometry.

For data set [2], the system named is KB-V-1 cells. The experiment in a line: Cytotoxicity in vinblastine resistant epidermoid carcinoma cells (estimated, not measured). The settings on record: PSC 833 5.0 μM, 24 h. It counts as cell-based, human. As to the method: To determine whether the influence of PSC 833 on ceramide metabolism was restricted to certain cell types, a vinblastine resistant epidermoid carcinoma, KB-V-1, was tested. In KB-V-1 cells exposed to 5.0 μM PSC 833 for 24 h, cellular levels of tritiated ceramide ([^3H]palmitic acid labeling) increased 8.7-fold over untreated cells. This is 4-fold higher than the ceramide increase elicited by PSC 833 in MCF-7-AdrR cells (FIG. 7). The increase in ceramide in KB-V-1 cells was accompanied by cytotoxicity, which while not measured was estimated at 80% cell death. Additionally, the PSC 833-induced increase in [^3H]ceramide was not accompanied by decreases in [^3H]sphingomyelin, but rather a slight increase in radiolabeled sphingomyelin (33% over the control).

The test system of another data set is MCF-7-wt cells. The experiment in a line: Cytotoxicity assay (Promega) in chemosensitive wild-type breast cancer cells. It counts as cell-based, human. The settings on record: PSC 833 10 μM, four days.
The test system of data set [3] is MCF-7-AdrR cells.
Data set [4] concerns KB-V-1 cells. Kind of data set: Ceramide and sphingomyelin metabolism ([3H]palmitic acid labeling) in vinblastine resistant epidermoid carcinoma cells. In kind it is cell-based, human. The settings on record: PSC 833 5.0 μM. As to the method: as §1
Cell Radiolabeling and Lipid/Glycolipid Analysis. To follow lipid metabolism, cells were grown in the presence of tritiated ceramide precursors, L-[^3H]serine (20 Ci/mmol) (American Radiolabeled Chemicals, Inc., St. Louis), and [9, 10-^3H]palmitic acid (50 Ci/mmol) (DuPont NEN). […] After radiolabeling, 0.1 ml aliquots of medium were removed and analyzed by LSC (Lavie, 1997), in order to determine cellular uptake of the tritiated compounds. […]
Radioactivity in glucosylceramide was analyzed by TLC resolution of total lipids (Silica Gel G) using a solvent system containing chloroform/methanol/ammonium hydroxide (80:20:2, v/v/v). Migration of glucosylceramide on TLC was compared with that of commercial standard (glucocerebrosides, Gaucher's spleen, Matreya, Inc., Pleasant Gap, Pa.), and lipid spots, after iodine vapor visualization, were scraped for tritium quantitation by LSC (Lavie, 1997; Lavie, 1996). […] After iodine visualization of lipids, areas of the chromatogram corresponding to ceramide and sphingomyelin were scraped into minivials containing 0.5 ml water followed by 4.5 ml EcoLume (ICN, Costa Mesa, Calif.), and samples were analyzed for tritium by liquid scintillation spectrometry. […]

Where [5] appears, read: increasing concentration, 60 min then [3H]palmitic acid for 23 h.

For `C/C=C/C[C@@H](C)C(=O)[C@H]1C(=O)N[C@@H](C(C)C)C(=O)N(C)CC(=O)N(C)[C@@H](CC(C)C)C(=O)N[C@@H](C(C)C)C(=O)N(C)[C@@H](CC(C)C)C(=O)N[C@@H](C)C(=O)N[C@H](C)C(=O)N(C)[C@@H](CC(C)C)C(=O)N(C)[C@@H](CC(C)C)C(=O)N(C)[C@@H](C(C)C)C(=O)N1C` [PSC 833, ([3′-Keto-Bmt1]-Val2)-cyclosporine], in the data set with MCF-7-AdrR cells [1] (60 min then [3H]palmitic acid for 23 h), the “concentration at which activation of glucosylceramide formation was apparent” value came to 0.1 µM. In the data set on MCF-7-AdrR cells [1] (PSC 833 2.5 μM, overnight, [3H]serine), the “glucosylceramide level (TLC autoradiography)” value is recorded as “increased markedly”. In the data set on MCF-7-AdrR cells [1] (PSC 833 5.0 μM, 2 h), the “sphingomyelin, % of control” value is given as 150 % of control. In addition, the “time at which activation of cellular ceramide formation was discernible” value in the data set on MCF-7-AdrR cells [1] (PSC 833 5.0 μM, exposure 15 min-4 h) was 30 min. Further, the “ceramide level, increase over control” value in the data set with MCF-7-AdrR cells [1] (adriamycin 2.5, PSC 833 5.0 μM, tamoxifen 5.0 μM alone or combined, 24 h, [3H]palmitic acid) worked out at 4.8 fold. In the data set on MCF-7-AdrR cells [1] (setting [5]), the “cellular ceramide formation, dose-response” value is recorded as “elicited an increase in cellular ceramide formation” and the “glucosylceramide formation, dose-response” value is reported as “resulted in glucosylceramide synthesis”. For the same compound, in the data set on KB-V-1 cells [2], the “cell death (not measured, estimated)” value is reported as ~80%. Further, the “reduction in cell survival” value with MCF-7-wt cells was 80%. In the data set with MCF-7-AdrR cells [3] (PSC 833 0.5 μM, 5-days), this compound returned a cell kill of 10%. Moreover, in the data set on MCF-7-AdrR cells [3] (PSC 833 10 μM, four days), the “reduction in cell survival” value is 35%. Also, in the data set with MCF-7-AdrR cells [3] (adriamycin 2.5 μM, PSC 833 5.0, tamoxifen 5.0 μM alone or combined, 3-days), the cell viability entry is “without influence”. Also, the “ceramide increase in KB-V-1 relative to increase in MCF-7-AdrR cells” value with KB-V-1 cells [4] is 4 fold. In the data set on KB-V-1 cells [4] (24 h), the “radiolabeled sphingomyelin, increase over the control” value worked out at 33% and the “tritiated ceramide level, increase over untreated cells” value turned out to be 8.7 fold.

(Values after US6982142B2, “Methods for screening therapeutically effective agents” (John Wayne Cancer Institute, priority 1997, dated 2006).)
